# Test results from ChEMBL document CHEMBL2417454, “Oxazolopyridines and thiazolopyridines as monoamine oxidase B inhibitors for the treatment of Parkinson's disease” (Bioorg Med Chem, 2013).
# Tests used:
# [1] = target: T1, Amine oxidase [flavin-containing] B (Homo sapiens, UniProt P27338); assay: Inhibition of human recombinant MAO-B using benzylamine hydrochloride as substrate assessed as H2O2 synthesis at 10 uM after 1 hr by fluorescence assay; conditions: read-out: INH
# T1 sequence (P27338 whole entry): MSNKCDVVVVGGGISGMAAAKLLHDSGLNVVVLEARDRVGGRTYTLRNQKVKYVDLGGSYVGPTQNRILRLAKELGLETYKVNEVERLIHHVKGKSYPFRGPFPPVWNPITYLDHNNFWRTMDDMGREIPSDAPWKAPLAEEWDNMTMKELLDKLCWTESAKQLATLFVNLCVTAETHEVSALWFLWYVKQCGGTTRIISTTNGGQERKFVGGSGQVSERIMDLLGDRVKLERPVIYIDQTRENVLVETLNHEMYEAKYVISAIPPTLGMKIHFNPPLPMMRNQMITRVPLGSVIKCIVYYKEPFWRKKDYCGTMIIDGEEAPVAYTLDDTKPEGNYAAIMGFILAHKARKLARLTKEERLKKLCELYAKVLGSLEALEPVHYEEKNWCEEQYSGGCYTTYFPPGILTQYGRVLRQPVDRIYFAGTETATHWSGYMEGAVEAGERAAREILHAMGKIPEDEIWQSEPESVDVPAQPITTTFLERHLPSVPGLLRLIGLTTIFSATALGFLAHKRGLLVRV
# [2] = target: T1, Amine oxidase [flavin-containing] B; assay: Inhibition of human recombinant MAO-B using benzylamine hydrochloride as substrate assessed as H2O2 synthesis after 1 hr by fluorescence assay
SMILES,inhibition at 10 µM [1],IC50 [2]
Fc1ccccc1-c1nc2ccc(N3CCCCC3)nc2o1,94.9%,665 nM
Fc1cccc(-c2nc3ccc(N4CCCCC4)nc3o2)c1,89.7%,
Fc1ccc(-c2nc3ccc(N4CCCCC4)nc3o2)cc1,93.4%,270 nM
Clc1ccccc1-c1nc2ccc(N3CCCCC3)nc2o1,96.3%,267 nM
Clc1cccc(-c2nc3ccc(N4CCCCC4)nc3o2)c1,91.7%,335 nM
c1ccc(-c2nc3ccc(N4CCCCC4)nc3s2)cc1,95.5%,356 nM
Fc1ccc(-c2nc3ccc(N4CCCCC4)nc3s2)cc1,92.7%,26.5 nM
Clc1ccccc1-c1nc2ccc(N3CCCCC3)nc2s1,95.1%,171 nM
Clc1ccc(-c2nc3ccc(N4CCCCC4)nc3s2)cc1,84.2%,358 nM

# Further lines, results first:
inhibition at 10 µM [1],IC50 [2],SMILES
19%,,CNc1ccc2nc(-c3ccccc3)oc2n1
79.1%,2540 nM,c1ccc(-c2nc3ccc(NC4CCCCC4)nc3o2)cc1
4.8%,,c1ccc(CNc2ccc3nc(-c4ccccc4)oc3n2)cc1
3.7%,,CN(Cc1ccccc1)c1ccc2nc(-c3ccccc3)oc2n1
57.9%,,c1ccc(-c2nc3ccc(N4CCCCCC4)nc3o2)cc1
86.8%,1370 nM,c1ccc(-c2nc3ccc(N4CCCCC4)nc3o2)cc1
69.8%,890 nM,Clc1ccc(-c2nc3ccc(N4CCCCC4)nc3o2)cc1
